Literature values, collected in patent US20230210762A1, “TRANSDERMAL DRUG DELIVERY DEVICES HAVING PSILOCYBIN, LYSERGIC ACID DI[…] 3,4-METHYLENEDIOXYMETHA[…] MICROPROTRUSIONS” (Emergex USA Corporation, priority 2020, published 2023).
Like-named read-outs stand apart in the source and are kept apart here.

Tests used:
[1] = psilocybin administered orally to rats
[2] = not given; remark: listed apart in the source
[3] = not given; remark: listed apart in the source

SMILES: CN(C)CCc1c[nH]c2cccc(O)c12 [psilocin]
- time until psilocin is detectable in plasma (after administration of the parent compound psilocybin): ≤ 20 min
- time to maximum plasma levels [1]: approximately 90 minutes
- total volume of psilocin absorbed from the digestive tract [1]: approximately 50%

SMILES: CN(C)CCc1c[nH]c2cccc(OP(=O)(O)O)c12 [psilocybin, 3-[2-(demethylamino)ethyl-1H-indol-4-yl] dihydrogen phosphate]
- solubility in water [2]: soluble
- ingested psilocybin absorbed through the stomach and intestine ([3]; oral, studies in animals): about 50%
- detected in urine, time after ingestion ([3]; urine): 7 days
- time within which most of the drug is eliminated ([3]; via urine, bile and feces): ≤ 8 h
- absorbed psilocybin excreted in the bile and feces ([3]; within 24 hours): 15-20%
- absorbed psilocybin excreted into the urine ([3]; within 24 hours): about 65%
- half-life (administered intravenously): 1.24 ± 0.327 h
- half-life (administered orally): 2.72 ± 1.07 h
- bioavailability (psilocybin ingested orally): about 50%
